Reference: patent publication US8426606B2, “2′,2-bisthiazole non-nucleoside compounds, preparation methods, pharmaceutical compositions and uses as hepatitis virus inhibitors thereof” (Shanghai Institute of Materia Medica, Chinese Academy of …, priority 2010, dated 2013)
Where two headings read alike, the source gives them in different places.

What was measured:
[1] = test system: HBV; experiment: Anti-HBV activity assay: HBV-DNA replication in HepG2.2.15 cells, fluorescent quantitation PCR of culture supernatant; format: cell-based, Hepatitis B Virus; conditions: for IC50: HBV-DNA in supernatant on the eighth day, read-out: IC50 (concentration at which 50% of the replication of HBV was inhibited); for SI (bioactivity selective index): anti-HBV
Protocol: (§1) The anti-HBV activity assay of a specimen compound was performed in HepG2.2.15 cells stably transformed with the whole genome of HBV, including the determination of the cytotoxicity of the specimen compound (CC50) and the effect of the specimen compound on the replication level of HBV-DNA (IC50).
(§2) The Human hepatoma carcinoma cell HepG2.2.15 cell line stably transformed with the whole genome of HBV can stably secrete hepatitis B virosomes (containing DNA) in the supernatant of culture during culture. Both the antiviral activity and the cytotoxicity of the specimen drugs may be determined by detecting the amount of virus DNA secreted into the supernatant of culture by the cells under the intervention of an antiviral drug, in reference to the amount in control group that is the absence of the antiviral drug. A real-time fluorescent quantitation PCR assay was adopted to determine the concentration of a specimen drug at which 50% of the replication of HBV-DNA was inhibited (IC50), and a MTT assay was adopted to determine the concentration of a specimen drug at which 50% cytotoxicity occurs (CC50).
The specimen drug was prepared into a solution having a concentration (400 μM) desired for the experiment before use. Six diluted concentrations were tested for each specimen drug. The clinical anti-hepatitis B virus drug Lamivudine was used as the positive control in experiment so as to determine whether the reaction is normal or not in each experiment.
(§3) HepG2.2.15 cells were inoculated on a 96-well plate at 5×10^5 cells/ml. On the second day, the specimen drug was added. After the culture medium and the specimen drug having the same concentration as above were replaced periodically, on the eighth day, the supernatant of culture was collected to be tested. To the cells on the 96-well plate, MTT (5 mg/ml) is added. 4 hours later, MTT lysis solution was added (100 μl/well). The next day, OD570 was read on a microplate reader. The cytotoxicity of the specimen drug on HepG2.2.15 cells, the influence of specimen drug on cell growth, and the concentration of specimen drug at which 50% of cells were killed (CC50) were calculated in accordance with the OD value.
A proper amount of the supernatant of culture was added into an isovolumic virus extract and mixed uniformly. The resulted mixture was boiled, and then centrifuged for 5 minutes at 10,000 rpm at room temperature. A proper amount of the obtained supernatant was used to perform PCR amplification, and meanwhile four standard samples of HBV-DNA were set up to make a standard curve. The inhibition of each specimen drug at various concentrations against the replication of HBV-DNA was calculated according to the detected replication value of the viral DNA, and then the half inhibition of the specimen drug was calculated to obtain its IC50.

[2] = Cytotoxicity on HepG2.2.15 cells (MTT assay); format: cell-based, Human; conditions: human, read-out: CC50 (concentration at which 50% of cells was killed)
Protocol: as §1, §2, §3

[3] = test system: HCV (J399E); experiment: microbe, parasite or virus in culture; format: cell-based, Hepatitis C Virus; conditions: for IC50: Hepatitis C virus, Huh-7.5.1, 72 h, read-out: IC50 (concentration at which 50% of the replication of HCV was inhibited); for SI (bioactivity selective index): anti-HCV, Huh7.5.1 cells
Protocol: The variation of the green fluorescence intensity was recorded on a microplate reader and cytotoxicity was measured at the same time, so as to evaluate the influence of the compound on the replication activity of HCV.
Compounds to be tested were dissolved in DMSO to prepare a stock solution before the test. Upon using, the stock solution was diluted to a desired concentration with DMEM (Dulbecco's Modified Eagle Media, purchased from GibcoBRL company (Life Technologies, Grand Island, N.Y., USA)) containing 10% FBS (fetal bovine serum, purchased from Hyclone company (Logan, Utah, USA)).
Positive control: ribavirin (purchased from Sigma/Aldrich). It was dissolved in DMSO to prepare a stock solution and stored at −20° C. before use, and diluted to a desired concentration upon using.
(§4) Huh7.5.1 cells (10% FBS, DMEM) at the concentration of 10^5 cells/ml were inoculated on a 96-well plate (Costar 3904) with 100 μl per well. 24 hours later, the supernatant of culture was sucked out, and 50 μl of virus supernatant with MOI=0.1 was added. 8 hours later, 50 μl of the testing drug was added and 100 μl of culture medium was supplemented. After incubation for 72 hours, the supernatant was sucked out, and read on a fluorescent microplate reader (Ex=488 nm, Em=516 nm). Then each well was added with 20 μl of MTT (5 mg/ml) and additional 50 μl of culture medium. 4 hours later, 100 μl of MTT lysis solution was added. 6 hours later, reading was performed at a wavelength of 570 nm.

[4] = in vitro; format: cell-based; conditions: human
Protocol: The anti-HCV activity assay was performed by using Huh7.5.1 cells (donated by WUHAN INSTITUTE of VIROLOGY, CHINESE ACADEMY OF SCIENCES) infected by HCV (J399E) inserted with enhanced green fluorescent protein (EGFP). The variation of the green fluorescence intensity was recorded on a microplate reader and cytotoxicity was measured at the same time, so as to evaluate the influence of the compound on the replication activity of HCV.
as §4

[5] = In vivo pharmacokinetic studies in rats (intragastric and intravenous); parameters: species or system SD rats; conditions: rat; for bioavailability: plasma, po, male SD rats, 20 mg/kg intragastric, dosage normalized, calculated according to AUC0-t
Protocol: (§5) Intragastric Administration Three healthy male SD rats having body weights of 200 g to 250 g were administered with a specimen drug with a dosage of 20 mg/kg and a volume of 10 ml/kg. The rats were fasted for 12 hours before administration and had the freedom to drink water. The venous blood with a volume of 0.3 ml was obtained from the retrobulbar venous plexus of the rats at 0.25 h, 0.5 h, 1.0 h, 2.0 h, 3.0 h, 4.0 h, 5.0 h, 7.0 h, 9.0 h and 24 h after the administration, put in a heparinized tube, and centrifuged for 10 minutes at 3500 rpm to separate the plasma, which was stored at −20° C. to be tested.
as §5, with “Intravenous Injection: Three healthy” for “Intragastric Administration Three healthy”, “dosage of 10 mg/kg and” for “dosage of 20 mg/kg and”, “volume of 5.0 ml/kg. The” for “volume of 10 ml/kg. The”, “rats at 5 min, 15 min, 0.5 h,” for “rats at 0.25 h, 0.5 h,”, “heparinized tube, centrifuged for” for “heparinized tube, and centrifuged for”

[6] = test system: HepG2.2.15 cells; experiment: Cytotoxicity on HepG2.2.15 cells (MTT assay); format: cell-based, Human; conditions: read-out: CC50 (concentration at which 50% of cells was killed)
Protocol: as §1, §2, §3

SMILES: CC(C)C(O)c1sc(-c2nccs2)nc1C(=O)NCc1ccc(F)cc1 (centres unmarked) [Compound 391-1, N-(p-fluorobenzyl)-5-(1-hydroxy-2-methylpropyl)-2′,2-bisthiazole-4-formamide]
- IC50 ([1]; Hepatitis B virus): 1.63 µM
- SI (bioactivity selective index) [1]: 20.9
- CC50 at 6 days [2]: 34 µM
- IC50 [3]: 10.2 µM
- SI (bioactivity selective index) [3]: 4.8
- CC50 at 72 h [4]: 48.6 µM

SMILES: CC(C)=Cc1sc(-c2ncc(C)s2)nc1C(=O)NCc1ccc(F)cc1 [Me-373, N-(p-fluorobenzyl)-5′-methyl-5-[1-(2-methylpropenyl)]-2′,2-bisthiazole-4-formamide]
- IC50 ([1]; Hepatitis B virus): 1.1 µM
- SI (bioactivity selective index) [1]: >90.9
- CC50 at 6 days [2]: > 100 µM
- IC50 [3]: 17.4 µM
- SI (bioactivity selective index) [3]: 3.8
- CC50 at 72 h [4]: 66.6 µM

SMILES: Cc1cnc(-c2nc(C(=O)NCc3ccc(F)cc3)c(C(O)C(C)C)s2)s1 (centres unmarked) [Me-391-1, N-(p-fluorobenzyl)-5′-methyl-5-(1-hydroxy-2-methylpropyl)-2′,2-bisthiazole-4-formamide]
- IC50 ([1]; Hepatitis B virus): 2.9 µM
- SI (bioactivity selective index) [1]: >11.5
- CC50 at 6 days [2]: > 33.3 µM
- IC50 [3]: 3.7 µM
- SI (bioactivity selective index) [3]: >9
- CC50 at 72 h [4]: > 33.3 µM

SMILES: CC(C)=Cc1sc(-c2nccs2)nc1C(=O)NCc1ccc(F)cc1 [Compound 373, N-(p-fluorobenzyl)-5-[1-(2-methylpropenyl)]-2′,2-bisthiazole-4-formamide]
- IC50 ([1]; Hepatitis B virus): 0.9 µM
- SI (bioactivity selective index) [1]: >111.1
- CC50 at 6 days [2]: > 100 µM
- IC50 [3]: 5.7 µM
- SI (bioactivity selective index) [3]: 14.9
- CC50 at 72 h [4]: 85 µM
- bioavailability [5]: 6.9%

SMILES: CC(C)(O)Cc1sc(-c2nccs2)nc1C(=O)NCc1ccc(F)cc1 [Compound 391-2, N-(p-fluorobenzyl)-5-(2-hydroxy-2-methylpropyl)-2′,2-bisthiazole-4-formamide]
- IC50 ([1]; Hepatitis B virus): 5.4 µM
- SI (bioactivity selective index) [1]: >18.5
- CC50 at 6 days [2]: > 100 µM
- IC50 [3]: 21.3 µM
- SI (bioactivity selective index) [3]: 6.3
- CC50 at 72 h [4]: 134 µM
- bioavailability [5]: 76.5%

SMILES: NC(=O)c1ncn([C@@H]2O[C@H](CO)[C@@H](O)[C@H]2O)n1 [Ribavirin, ribavirin, reference compound]
- IC50 [3]: 72.4 µM
- SI (bioactivity selective index) [3]: >2.8
- CC50 at 72 h [4]: > 200 µM

SMILES: CC(C)Cc1sc(-c2nccs2)nc1C(=O)NCc1ccc(F)cc1 [Compound W28F, N-parafluorobenzyl-5-isobutyl-2′,2-bithiazole-4-formamide, reference compound]
- IC50 [1]: 2.6 µM
- CC50 [6]: > 33.3 µM
- average oral bioavailability ([5]; in vivo, 10 mg/kg): 2.80%

SMILES: CC(C)(F)Cc1sc(-c2nccs2)nc1C(=O)NCc1ccc(F)cc1 [Compound 393-2, N-(p-fluorobenzyl)-5-(2-fluoro-2-methylpropyl)-2′,2-bisthiazole-4-formamide]
- IC50 ([1]; Hepatitis B virus): 0.41 to 33.3 µM
- SI (bioactivity selective index) [1]: <81
- CC50 at 6 days [2]: > 33.3 µM
- IC50 [3]: 1.5 µM
- SI (bioactivity selective index) [3]: >22.2
- CC50 at 72 h [4]: > 33.3 µM

SMILES: Cc1cnc(-c2nc(C(=O)NCc3ccc(F)cc3)c(C(F)C(C)C)s2)s1 (centres unmarked) [Me-393-1, N-(p-fluorobenzyl)-5′-methyl-5-(1-fluoro-2-methylpropyl)-2′,2-bisthiazole-4-formamide]
- IC50 ([1]; Hepatitis B virus): 0.2 µM
- SI (bioactivity selective index) [1]: >500
- CC50 at 6 days [2]: > 100 µM
- IC50 [3]: 6.6 µM
- SI (bioactivity selective index) [3]: >15.2
- CC50 at 72 h [4]: > 100 µM

SMILES: CC(CO)Cc1sc(-c2nccs2)nc1C(=O)NCc1ccc(F)cc1 (centres unmarked) [Compound 391-3, N-(p-fluorobenzyl)-5-(3-hydroxy-2-methylpropyl)-2′,2-bisthiazole-4-formamide]
- IC50 ([1]; Hepatitis B virus): < 0.41 µM
- SI (bioactivity selective index) [1]: >243.9
- CC50 at 6 days [2]: > 100 µM
- IC50 [3]: 9.9 µM
- SI (bioactivity selective index) [3]: 2.8
- CC50 at 72 h [4]: 28.1 µM

SMILES: Nc1ccn([C@@H]2CS[C@H](CO)O2)c(=O)n1 [Lamivudine, reference compound]
- IC50 ([1]; Hepatitis B virus): < 0.16 µM
- SI (bioactivity selective index) [1]: >32
- CC50 at 6 days [2]: > 5 µM

SMILES: C/C(=C\c1sc(-c2nccs2)nc1C(=O)NCc1ccc(F)cc1)CO [Compound 389, N-(p-fluorobenzyl)-5-[1-(3-hydroxy-2-methylpropenyl)]-2′,2-bisthiazole-4-formamide]
- IC50 ([1]; Hepatitis B virus): 30.2 µM
- SI (bioactivity selective index) [1]: >3.3
- CC50 at 6 days [2]: > 100 µM
- IC50 [3]: 6.6 µM
- SI (bioactivity selective index) [3]: 11.6
- CC50 at 72 h [4]: 76.5 µM

SMILES: C/C(=C\c1sc(-c2nccs2)nc1C(=O)NCc1ccc(F)cc1)CF [Compound 391-F, N-(p-fluorobenzyl)-5-[1-(2-fluoromethylpropenyl)]-2′,2-bisthiazole-4-formamide]
- IC50 ([1]; Hepatitis B virus): 12.5 µM
- SI (bioactivity selective index) [1]: >8
- CC50 at 6 days [2]: > 100 µM
- IC50 [3]: 6.5 µM
- SI (bioactivity selective index) [3]: 13.0
- CC50 at 72 h [4]: 84.7 µM

SMILES: CC(C)C(F)c1sc(-c2nccs2)nc1C(=O)NCc1ccc(F)cc1 (centres unmarked) [Compound 393-1, N-(p-fluorobenzyl)-5-(1-fluoro-2-methylpropyl)-2′,2-bisthiazole-4-formamide]
- IC50 ([1]; Hepatitis B virus): < 0.41 µM
- SI (bioactivity selective index) [1]: >81
- CC50 at 6 days [2]: > 33.3 µM
- IC50 [3]: 7.4 µM
- SI (bioactivity selective index) [3]: 5.5
- CC50 at 72 h [4]: 40.9 µM

SMILES: COC(c1sc(-c2nccs2)nc1C(=O)NCc1ccc(F)cc1)C(C)C (centres unmarked) [Compound 405-1, N-(p-fluorobenzyl)-5-(1-methoxy-2-methylpropyl)-2′,2-bisthiazole-4-formamide]
- IC50 ([1]; Hepatitis B virus): 2.6 µM
- SI (bioactivity selective index) [1]: >12.8
- CC50 at 6 days [2]: > 33.3 µM
- IC50 [3]: 3.7 µM
- SI (bioactivity selective index) [3]: 5.8
- CC50 at 72 h [4]: 21.4 µM
